In this assay the target is T1, recombinant human mGluR2 (Homo sapiens, UniProt Q14416).
T1 construct: expressed in transfected cells
T1 sequence (Q14416 19-872): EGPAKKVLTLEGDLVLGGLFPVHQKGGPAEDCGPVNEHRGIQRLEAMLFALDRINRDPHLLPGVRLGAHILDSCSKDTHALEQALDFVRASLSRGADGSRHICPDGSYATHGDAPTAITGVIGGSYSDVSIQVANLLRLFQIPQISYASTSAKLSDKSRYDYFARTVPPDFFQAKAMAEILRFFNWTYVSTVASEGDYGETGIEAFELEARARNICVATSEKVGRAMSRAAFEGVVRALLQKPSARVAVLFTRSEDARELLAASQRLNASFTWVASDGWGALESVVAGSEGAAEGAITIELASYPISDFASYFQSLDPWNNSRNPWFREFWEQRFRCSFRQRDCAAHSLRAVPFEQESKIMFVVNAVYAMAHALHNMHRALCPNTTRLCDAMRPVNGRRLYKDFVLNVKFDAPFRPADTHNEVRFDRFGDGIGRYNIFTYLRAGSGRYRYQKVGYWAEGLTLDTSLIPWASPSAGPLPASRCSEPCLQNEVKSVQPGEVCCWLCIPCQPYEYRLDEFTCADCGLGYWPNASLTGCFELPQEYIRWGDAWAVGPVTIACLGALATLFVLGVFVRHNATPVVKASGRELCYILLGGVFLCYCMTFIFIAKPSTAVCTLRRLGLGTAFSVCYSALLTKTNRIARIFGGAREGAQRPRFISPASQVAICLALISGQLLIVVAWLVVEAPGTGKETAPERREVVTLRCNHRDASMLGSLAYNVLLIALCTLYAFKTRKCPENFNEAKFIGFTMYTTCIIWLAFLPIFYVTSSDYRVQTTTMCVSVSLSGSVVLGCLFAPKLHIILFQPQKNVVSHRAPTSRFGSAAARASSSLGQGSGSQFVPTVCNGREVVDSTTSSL
In words: FLIPR Ca2+ mobilization assay, potentiation of mGluR2. Type of assay: cell-based. The following applies: CHO dhfr- cells expressing human mGluR2 and Gα16, EC20 glutamate (900 nM). How it is done:
Potencies are determined as follows. The compounds of the present invention may be tested in a fluorescence laser imaging plate reader (FLIPR) based assay. This assay is a common functional assay to monitor Ca^2+ mobilization in whole cells expressing recombinant receptor coupled with a promiscuous G-protein. CHO dhfr− cells stably expressing recombinant human mGluR2 and Gα16 loaded with Fluo-4 AM (Invitrogen, Carlsbad Calif.) are treated with varying concentrations of compounds and the Ca^2+ response is monitored on a FLIPR384 (Molecular Devices, Sunnydale Calif.) for agonist activity. The potentiation response is monitored after a subsequent addition of an EC20 concentration of glutamate (900 nM). The maximum calcium response at each concentration of compound for agonism or potentiation are plotted as dose responses curves fitted with a four parameters logistic equation giving EC50 and Hill coefficient using the iterative non linear curve fitting software program.
For orientation: Calcium flux is commonly read through the fluorescence of an indicator in the cells.
In the case of `OCC(O)c1ccc(-c2ccc3c(nnn3CC3CC3)c2C(F)(F)F)c(F)n1` (centres unmarked) [Example 4, 1-{5-[1-(cyclopropylmethyl)-4-(trifluoromethyl)-1H-benzotriazol-5-yl]-6-fluoropyridin-2-yl}ethane-1,2-diol], the EC50 (usually the concentration that produces a half-maximal response) worked out at 130 nM.

Regarding `CC(C)(O)c1ccc(-c2ccc3c(nnn3CC3CC3)c2C(F)(F)F)cc1` [Example 7, 2-{4-[1-(cyclopropylmethyl)-4-(trifluoromethyl)-1H-benzotriazol-5-yl]phenyl}propan-2-ol], the EC50 was 2.1 nM.

For `COC(C)c1ccc(-c2ccc3c(nnn3CC3CC3)c2C(F)(F)F)cc1` (centres unmarked) [Example 6, 1-(cyclopropylmethyl)-5-[4-(1-methoxyethyl)phenyl]-4-(trifluoromethyl)-1H-benzotriazole], the EC50 was 31 nM.

With `OCc1ccc(-c2ccc3c(nnn3CC3CC3)c2C(F)(F)F)cc1` [Example 2, {4-[1-(cyclopropylmethyl)-4-(trifluoromethyl)-1H-benzotriazol-5-yl]phenyl}methanol], the EC50 worked out at 11 nM.

Regarding `CC(O)c1ccc(-c2ccc3c(nnn3CC3CC3)c2C(F)(F)F)cc1` (centres unmarked) [Example 5, 1-{4-[1-(cyclopropylmethyl)-4-(trifluoromethyl)-1H-benzotriazol-5-yl]phenyl}ethanol], the 50% effective concentration (EC50) was found to be 8.3 nM.

Regarding `OC1CCOc2cc(-c3ccc4c(nnn4CC4CC4)c3C(F)(F)F)ccc21` (centres unmarked) [Example 8, 7-[1-(cyclopropylmethyl)-4-(trifluoromethyl)-1H-benzotriazol-5-yl]-3,4-dihydro-2H-chromen-4-ol], the EC50 turned out to be 3.9 nM.

In the case of `OCc1ccc(-c2ccc3c(nnn3CC3CC3)c2C(F)(F)F)c(F)n1` [Example 1, {5-[1-(Cyclopropylmethyl)-4-(trifluoromethyl)-1H-benzotriazol-5-yl]-6-fluoropyridin-2-yl}methanol], the EC50 is 27 nM.

On to `COC(=O)c1ccc(-c2ccc3c(nnn3CC3CC3)c2C(F)(F)F)c(F)c1` [Example 3, methyl 4-[1-(cyclopropylmethyl)-4-(trifluoromethyl)-1H-benzotriazol-5-yl]-3-fluorobenzoate], for which the EC50 was determined as 15 nM.

For the origin of these results see patent US20140088151A1, “ALHYDROXYMETHYL BIARYL BENZOTRIAZOLE DERIVATIVES” (priority 2011, published 2014).
